Laboratory results published in US7135466B2 (Kirin Beer Kabushiki Kaisha, priority 1999, dated 2006).

Assays:
PDGF-Ra = molecular target: T1, PDGF-Ra (Homo sapiens, UniProt P16234); assay: Inhibitory activity against PDGF-Ra phosphorylation by PDGF-AA stimulation using G292; assay type: cell-based; details: Pharmacological Test Example 1; > means inhibition at indicated concentration not more than 50%, < and << not less than 50%; read-out: PDGF (E) IC50
T1 construct: host or cells: G-292 human osteosarcoma cells
Outline: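 G-292 human osteosarcoma cells, serum-starved overnight in 0.1% FBS, were pretreated with compound in DMSO for 1 hr at 37 °C, then stimulated with 50 ng/ml PDGF-AA for 5 min. Lysates were captured on anti-phosphotyrosine PY-20 plates and probed with anti-PDGF-Ra plus HRP secondary; absorbance read at 450 nm.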

c-kit = molecular target: T2, c-kit (Homo sapiens, UniProt P10721); assay: Inhibitory activity against c-kit autophosphorylation (MO7e cells, h-SCF); assay type: cell-based; details: for IC50: MO7e cells, h-SCF 50 ng/ml, read-out: c-kit IC50; for inhibition at 1 µM: Mo7e, figure in parentheses in −( ), at 1000 nM
T2 construct: MO7e (human megakaryocytic leukemia cell line) which had been arrested for 20 hr; endogenous in cells; host or cells: MO7e human megakaryocytic leukemia cell line
Outline: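 MO7e human megakaryocytic leukemia cells, arrested 20 hr, treated with compound 1 hr, then stimulated with 50 ng/ml h-SCF for 5 min and lysed. Lysates captured on immobilized anti-phosphotyrosine antibody, detected with anti-c-kit primary and HRP secondary antibody; absorbance at 450 nm.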

T1 sequence (P16234 24-1089): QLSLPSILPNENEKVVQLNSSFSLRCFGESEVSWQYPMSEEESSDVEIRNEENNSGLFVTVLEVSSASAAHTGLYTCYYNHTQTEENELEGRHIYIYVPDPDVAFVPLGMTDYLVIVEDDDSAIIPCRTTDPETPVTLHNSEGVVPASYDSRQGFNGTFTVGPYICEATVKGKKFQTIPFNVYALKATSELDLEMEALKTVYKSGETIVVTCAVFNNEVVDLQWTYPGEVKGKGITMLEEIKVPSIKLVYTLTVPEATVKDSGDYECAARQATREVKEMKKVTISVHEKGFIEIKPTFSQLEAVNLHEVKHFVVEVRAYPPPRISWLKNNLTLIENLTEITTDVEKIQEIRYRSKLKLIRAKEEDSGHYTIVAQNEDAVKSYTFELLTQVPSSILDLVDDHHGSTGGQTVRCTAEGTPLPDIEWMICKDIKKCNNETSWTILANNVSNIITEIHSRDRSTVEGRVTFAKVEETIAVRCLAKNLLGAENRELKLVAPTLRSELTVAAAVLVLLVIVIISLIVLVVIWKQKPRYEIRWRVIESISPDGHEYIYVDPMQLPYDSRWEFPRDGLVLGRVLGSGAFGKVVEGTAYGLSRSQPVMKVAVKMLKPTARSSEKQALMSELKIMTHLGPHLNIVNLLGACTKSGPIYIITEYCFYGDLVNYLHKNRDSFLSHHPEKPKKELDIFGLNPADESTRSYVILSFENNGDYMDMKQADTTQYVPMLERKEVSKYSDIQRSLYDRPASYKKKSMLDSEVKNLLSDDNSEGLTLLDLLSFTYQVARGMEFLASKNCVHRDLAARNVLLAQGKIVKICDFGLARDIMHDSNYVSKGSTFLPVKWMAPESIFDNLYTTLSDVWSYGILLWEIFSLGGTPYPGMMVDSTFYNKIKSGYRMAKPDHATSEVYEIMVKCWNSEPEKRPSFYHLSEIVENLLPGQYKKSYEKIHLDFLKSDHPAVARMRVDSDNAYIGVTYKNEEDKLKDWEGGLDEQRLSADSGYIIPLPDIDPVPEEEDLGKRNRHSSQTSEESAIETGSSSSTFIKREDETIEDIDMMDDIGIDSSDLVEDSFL
T2 sequence (P10721 26-976): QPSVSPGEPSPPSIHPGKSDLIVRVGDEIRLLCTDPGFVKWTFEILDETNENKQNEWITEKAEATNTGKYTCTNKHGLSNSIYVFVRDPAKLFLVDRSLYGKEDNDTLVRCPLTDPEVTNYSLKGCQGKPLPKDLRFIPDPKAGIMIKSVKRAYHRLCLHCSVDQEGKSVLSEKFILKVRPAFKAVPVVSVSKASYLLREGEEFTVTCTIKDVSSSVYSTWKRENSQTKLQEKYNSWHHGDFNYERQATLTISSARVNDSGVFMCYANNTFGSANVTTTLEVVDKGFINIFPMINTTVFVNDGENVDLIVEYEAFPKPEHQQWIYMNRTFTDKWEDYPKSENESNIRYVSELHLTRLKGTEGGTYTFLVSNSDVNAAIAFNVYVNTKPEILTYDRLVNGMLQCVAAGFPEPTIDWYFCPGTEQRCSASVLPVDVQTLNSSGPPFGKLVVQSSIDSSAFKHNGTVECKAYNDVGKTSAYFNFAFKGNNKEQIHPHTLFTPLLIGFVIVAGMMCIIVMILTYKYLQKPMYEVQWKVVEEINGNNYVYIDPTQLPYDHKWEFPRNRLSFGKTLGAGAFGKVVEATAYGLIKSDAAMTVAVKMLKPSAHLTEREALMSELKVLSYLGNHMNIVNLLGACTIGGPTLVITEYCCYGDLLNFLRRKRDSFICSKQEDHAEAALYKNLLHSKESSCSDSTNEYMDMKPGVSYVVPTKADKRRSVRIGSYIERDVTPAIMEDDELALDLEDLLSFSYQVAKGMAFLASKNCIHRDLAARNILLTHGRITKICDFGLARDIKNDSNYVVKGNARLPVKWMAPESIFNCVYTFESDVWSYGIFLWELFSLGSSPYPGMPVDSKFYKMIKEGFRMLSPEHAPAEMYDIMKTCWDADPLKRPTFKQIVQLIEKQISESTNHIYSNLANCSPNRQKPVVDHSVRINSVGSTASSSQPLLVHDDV

IC50 (PDGF-Ra) [nM] | IC50 (c-kit) [nM] | inhibition at 1 µM (c-kit) [%] | Structure (SMILES)
19 | – | 45 | COc1cc2nccc(Oc3ccc(NC(=O)OC(C)c4cccc(C(F)(F)F)c4)c(C)c3C)c2cc1OC (stereo not drawn) [Example 88, 1-[3-(Trifluoromethyl)phenyl]ethyl N-{4-[(6,7-dimethoxy-4-quinolyl)oxy]-2,3-dimethylphenyl}carbamate]
14 | – | 35 | COc1cc2nccc(Oc3cc(C)c(NC(=O)OC(C)c4cccc(C(F)(F)F)c4)cc3C)c2cc1OC (stereo not drawn) [Example 89, 1-[3-(Trifluoromethyl)phenyl]ethyl N-{4-[(6,7-dimethoxy-4-quinolyl)oxy]-2,5-dimethylphenyl}carbamate]
17 | 601 | – | COc1cc2nccc(Oc3ccc(NC(=O)OC(C)c4cc(F)c(F)cc4F)c(C)c3C)c2cc1OC (stereo not drawn) [Example 93, 1-(2,4,5-Trifluorophenyl)ethyl N-{4-[(6,7-dimethoxy-4-quinolyl)oxy]-2,3-dimethylphenyl}carbamate]
< 10 | 254 | – | COc1cc2nccc(Oc3ccc(NC(=O)OC(C)c4cccc(F)c4)cc3)c2cc1OC (stereo not drawn) [Example 97, 1-(3-Fluorophenyl)ethyl N-{4-[(6,7-dimethoxy-4-quinolyl)oxy]phenyl}carbamate]
< 10 | 152 | – | COc1cc2nccc(Oc3ccc(NC(=O)OC(C)c4cccc(F)c4)c(C)c3C)c2cc1OC (stereo not drawn) [Example 98, 1-(3-Fluorophenyl)ethyl N-{4-[(6,7-dimethoxy-4-quinolyl)oxy]-2,3-dimethylphenyl}carbamate]
21 | 394 | – | COc1cc2nccc(Oc3cc(C)c(NC(=O)OC(C)c4cccc(F)c4)cc3C)c2cc1OC (stereo not drawn) [Example 99, 1-(3-Fluorophenyl)ethyl N-{4-[(6,7-dimethoxy-4-quinolyl)oxy]-2,5-dimethylphenyl}carbamate]
15 | 200 | – | COc1cc2nccc(Oc3ccc(NC(=O)OC(C)c4ccc(F)cc4)c(C)c3C)c2cc1OC (stereo not drawn) [Example 103, 1-(4-Fluorophenyl)ethyl N-{4-[(6,7-dimethoxy-4-quinolyl)oxy]-2,3-dimethylphenyl}carbamate]
25 | 590 | – | COc1cc2nccc(Oc3cc(C)c(NC(=O)OC(C)c4ccc(F)cc4)cc3C)c2cc1OC (stereo not drawn) [Example 104, 1-(4-Fluorophenyl)ethyl N-{4-[(6,7-dimethoxy-4-quinolyl)oxy]-2,5-dimethylphenyl}carbamate]
18 | 402 | – | COc1cc2nccc(Oc3ccc(NC(=O)OC(C)c4ccccc4Br)c(C)c3C)c2cc1OC (stereo not drawn) [Example 113, 1-(2-Bromophenyl)ethyl N-{4-[(6,7-dimethoxy-4-quinolyl)oxy]-2,3-dimethylphenyl}carbamate]
33 | 746 | – | COc1cc2nccc(Oc3ccc(NC(=O)OC(C)c4cccc(Br)c4)c(C)c3C)c2cc1OC (stereo not drawn) [Example 118, 1-(3-Bromophenyl)ethyl N-{4-[(6,7-dimethoxy-4-quinolyl)oxy]-2,3-dimethylphenyl}carbamate]
> 100 | – | 31 | COc1cc2nccc(Oc3cc(C)c(NC(=O)OC(C)c4cccc(Br)c4)cc3C)c2cc1OC (stereo not drawn) [Example 119, 1-(3-Bromophenyl)ethyl N-{4-[(6,7-dimethoxy-4-quinolyl)oxy]-2,5-dimethylphenyl}carbamate]

Second part, the molecule before the results:

Structure (SMILES) | IC50 (PDGF-Ra) [nM] | IC50 (c-kit) [nM] | inhibition at 1 µM (c-kit) [%]
COc1cc2nccc(Oc3ccc(NC(=O)OCCc4cccc(C(F)(F)F)c4)c(C)c3C)c2cc1OC [Example 83, 3-(Trifluoromethyl)phenethyl N-{4-[(6,7-dimethoxy-4-quinolyl)oxy]-2,3-dimethylphenyl]carbamate] | 16 | 253 | –
COc1cc2nccc(Oc3cc(C)c(NC(=O)OCCc4cccc(C(F)(F)F)c4)cc3C)c2cc1OC [Example 84, 3-(Trifluoromethyl)phenethyl N-{4-[(6,7-dimethoxy-4-quinolyl)oxy]-2,5-dimethylphenyl}carbamate] | 27 | 399 | –
COc1cc2ncnc(Oc3ccc(NC(=O)OCCc4cccc(C(F)(F)F)c4)cc3)c2cc1OC [Example 85, 3-(Trifluoromethyl)phenethyl N-{4-[(6,7-dimethoxy-4-quinazolinyl)oxy]phenyl}carbamate] | < 10 | 163 | –
COc1cc2ncnc(Oc3ccc(NC(=O)OCCc4cccc(C(F)(F)F)c4)c(Cl)c3)c2cc1OC [Example 86] | 13 | 842 | –
COc1cc2nccc(Oc3ccc(NC(=O)OC(C)c4cccc(C(F)(F)F)c4)cc3)c2cc1OC (stereo not drawn) [Example 87, 1-[3-(Trifluoromethyl)phenyl]ethyl N-{4-[(6,7-dimethoxy-4-quinolyl)oxy]phenyl}carbamate] | < 10 | 607 | –
COc1cc2ncnc(Oc3ccc(NC(=O)OC(C)c4cccc(C(F)(F)F)c4)cc3)c2cc1OC (stereo not drawn) [Example 90, 1-[3-(Trifluoromethyl)phenyl]ethyl N-{4-[(6,7-dimethoxy-4-quinazolinyl)oxy]phenyl}carbamate] | < 10 | 621 | –
COc1cc2ncnc(Oc3ccc(NC(=O)OC(C)c4cccc(C(F)(F)F)c4)c(Cl)c3)c2cc1OC (stereo not drawn) [Example 91, 1-[3-(Trifluoromethyl)phenyl]ethyl N-{2-chloro-4-[(6,7-dimethoxy-4-quinazolinyl)oxy]phenyl}carbamate] | 14 | – | 20
COc1cc2nccc(Oc3ccc(NC(=O)OC(C)c4cc(F)c(F)cc4F)cc3)c2cc1OC (stereo not drawn) [Example 92, 1-(2,4,5-Trifluorophenyl)ethyl N-{4-[(6 7-dimethoxy-4-quinolyl)oxy]phenyl}carbamate] | < 10 | 677 | –
COc1cc2nccc(Oc3cc(C)c(NC(=O)OC(C)c4cc(F)c(F)cc4F)cc3C)c2cc1OC (stereo not drawn) [Example 94, 1-(2,4,5-Trifluorophenyl)ethyl N-{4-[(6,7-dimethoxy-4-quinolyl)oxy]-2,5-dimethylphenyl}carbamate] | 31 | – | 31
COc1cc2ncnc(Oc3ccc(NC(=O)OC(C)c4cc(F)c(F)cc4F)cc3)c2cc1OC (stereo not drawn) [Example 95, 1-(2,4,5-Trifluorophenyl)ethyl N-{4-[(6,7-dimethoxy-4-quinazolinyl)oxy]phenyl}carbamate] | 16 | 962 | –
COc1cc2ncnc(Oc3ccc(NC(=O)OC(C)c4cc(F)c(F)cc4F)c(Cl)c3)c2cc1OC (stereo not drawn) [Example 96, 1-(2,4,5-Trifluorophenyl)ethyl N-{2-chloro-4-[(6,7-dimethoxy-4-quinazolinyl)oxy]phenyl}carbamate] | 38 | – | 13
COc1cc2ncnc(Oc3ccc(NC(=O)OC(C)c4cccc(F)c4)cc3)c2cc1OC (stereo not drawn) [Example 100, 1-(3-Fluorophenyl)ethyl N-{4-[(6,7-dimethoxy-4-quinazolinyl)oxy]phenyl}carbamate] | 14 | 815 | –
COc1cc2ncnc(Oc3ccc(NC(=O)OC(C)c4cccc(F)c4)c(Cl)c3)c2cc1OC (stereo not drawn) [Example 101, 1-(3-Fluorophenyl)ethyl N-{2-chloro-4-[(6,7-dimethoxy-4-quinazolinyl)oxy]phenyl}carbamate] | 12 | – | 27
COc1cc2nccc(Oc3ccc(NC(=O)OC(C)c4ccc(F)cc4)cc3)c2cc1OC (stereo not drawn) [Example 102, 1-(4-Fluorophenyl)ethyl N-{4-[(6,7-dimethoxy-4-quinolyl)oxy]phenyl}carbamate] | < 10 | 217 | –
COc1cc2ncnc(Oc3ccc(NC(=O)OC(C)c4ccc(F)cc4)cc3)c2cc1OC (stereo not drawn) [Example 105, 1-(4-Fluorophenyl)ethyl N-{4-[(6,7-dimethoxy-4-quinazolinyl)oxy]phenyl}carbamate] | < 10 | 252 | –
COc1cc2nccc(Oc3ccc(NC(=O)OC(C)c4ccccc4Br)cc3)c2cc1OC (stereo not drawn) [Example 112, 1-(2-Bromophenyl)ethyl N-{4-[(6,7-dimethoxy-4-quinolyl)oxy]phenyl}carbamate] | 16 | 214 | –
COc1cc2nccc(Oc3cc(C)c(NC(=O)OC(C)c4ccccc4Br)cc3C)c2cc1OC (stereo not drawn) [Example 114, 1-(2-Bromophenyl)ethyl N-{4-[(6,7-dimethoxy-4-quinolyl)oxy]-2,5-dimethylphenyl}carbamate] | 65 | 602 | –
COc1cc2ncnc(Oc3ccc(NC(=O)OC(C)c4ccccc4Br)cc3)c2cc1OC (stereo not drawn) [Example 115, 1-(2-Bromophenyl)ethyl N-{4-[(6,7-dimethoxy-4-quinazolinyl)oxy]phenyl}carbamate] | < 10 | 387 | –
COc1cc2nccc(Oc3ccc(NC(=O)OC(C)c4cccc(Br)c4)cc3)c2cc1OC (stereo not drawn) [Example 117, 1-(3-Bromophenyl)ethyl N-{4-[(6,7-dimethoxy-4-quinolyl)oxy]phenyl}carbamate] | 26 | 759 | –
COc1cc2ncnc(Oc3ccc(NC(=O)OC(C)c4cccc(Br)c4)cc3)c2cc1OC (stereo not drawn) [Example 120, 1-(3-Bromophenyl)ethyl N-{4-[(6,7-dimethoxy-4-quinazolinyl)oxy]phenyl}carbamate] | 13 | 505 | –
COc1cc2ncnc(Oc3ccc(NC(=O)OC(C)c4cccc(Br)c4)c(Cl)c3)c2cc1OC (stereo not drawn) [Example 121, 1-(3-Bromophenyl)ethyl N-{2-chloro-4-[(6,7-dimethoxy-4-quinazolinyl)oxy]phenyl}carbamate] | 48 | – | 17
COc1cc2nccc(Oc3ccc(NC(=O)OC(C)c4ccccc4F)cc3)c2cc1OC (stereo not drawn) [Example 122, 1-(2-Fluorophenyl)ethyl N-{4-[(6,7-dimethoxy-4-quinolyl)oxy]phenyl}carbamate] | 11 | 821 | –
